Reference: paper PMC10485003, “Antibiotic hyper-resistance in a class I aminoacyl-tRNA synthetase with altered active site signature motif” (Nature Communications, 2023)
Like-named read-outs stand apart in the source and are kept apart here.

What was measured:
P53A/G60N/R61K PmIleRS2 = biological target: T1, P53A/G60N/R61K PmIleRS2 (Priestia megaterium, UniProt A0A0B6AVD3, G60N/P53A/R61K); test: Activation step kinetics of reciprocal-residue mutants, mupirocin inhibition; format: biochemical, Priestia (Bacillus) megaterium; conditions: peer review response Table 1, read-out: Ki (Mup)
T1 sequence (A0A0B6AVD3 1-1032 P53A/G60N/R61K): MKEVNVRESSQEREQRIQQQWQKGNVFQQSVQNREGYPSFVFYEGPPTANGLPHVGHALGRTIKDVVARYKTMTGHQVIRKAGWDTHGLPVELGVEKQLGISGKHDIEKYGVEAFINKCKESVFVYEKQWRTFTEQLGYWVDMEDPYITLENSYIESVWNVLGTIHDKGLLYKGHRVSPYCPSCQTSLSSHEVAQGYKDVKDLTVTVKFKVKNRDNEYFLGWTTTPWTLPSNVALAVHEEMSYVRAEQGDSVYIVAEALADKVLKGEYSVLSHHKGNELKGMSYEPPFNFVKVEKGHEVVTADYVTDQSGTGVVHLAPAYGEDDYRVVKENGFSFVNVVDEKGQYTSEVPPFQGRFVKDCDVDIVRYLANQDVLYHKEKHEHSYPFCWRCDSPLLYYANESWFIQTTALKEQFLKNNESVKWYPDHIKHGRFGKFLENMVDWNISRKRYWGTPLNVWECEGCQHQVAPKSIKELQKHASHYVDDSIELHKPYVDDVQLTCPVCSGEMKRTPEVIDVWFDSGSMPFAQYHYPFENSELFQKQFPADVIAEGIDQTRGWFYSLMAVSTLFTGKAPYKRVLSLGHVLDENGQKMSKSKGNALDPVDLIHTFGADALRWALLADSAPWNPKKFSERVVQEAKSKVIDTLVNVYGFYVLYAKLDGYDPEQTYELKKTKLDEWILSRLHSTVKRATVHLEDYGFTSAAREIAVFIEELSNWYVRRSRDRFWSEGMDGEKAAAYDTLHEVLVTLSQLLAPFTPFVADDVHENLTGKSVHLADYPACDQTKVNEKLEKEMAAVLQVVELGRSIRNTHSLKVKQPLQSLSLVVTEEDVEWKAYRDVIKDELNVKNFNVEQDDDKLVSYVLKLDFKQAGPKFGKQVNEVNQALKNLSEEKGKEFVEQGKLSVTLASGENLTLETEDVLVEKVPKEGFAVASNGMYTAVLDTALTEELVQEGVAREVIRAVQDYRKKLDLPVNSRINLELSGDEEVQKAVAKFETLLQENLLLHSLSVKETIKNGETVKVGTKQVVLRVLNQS
Method: (§1) L-Ile and ATP concentrations ranged from 1/10 KM to 10 KM values. When measuring the KI towards one of the substrates, the other was held in saturation (concentrations at least 10 KM). The aliquots of the reaction mixture (1–2.5 μl) were quenched in 2 volumes of 500 mM NaOAc pH = 4.5, 0.1% SDS, and formed ^32P-ATP was separated from the remaining ^32P-PPi by thin-layer chromatography on Polygram CEL 300 PEI UV254 TLC plates (Macherey-Nagel, cat: 801063) using 750 mM KH2PO4 pH=3.5, 4 M urea buffer. Visualization and quantification of the signals was performed using a Typhoon Phosphoimager 5 (General Electric) and accompanying ImageQuant™ TL software (SV: 10.2). The kinetic constants were determined using a global fit option of the competitive inhibition model of GraphPad Prism 6 software (SV: 6.01). All experiments were performed in triplicates. The kcat was determined by dividing the maximal velocity, VM, with the used enzyme concentration. […]
(§2) same catalytic mechanisms. Further, mutation of the natural ALHH motif of DrIleRS2 to ALGH led to the loss of activity, showing that IleRS2 enzymes also require the 1st/3rd His for the activity (i.e. implying the same reaction mechanisms).
(§3) To address this point, we changed the sentence “This allows accommodation of the 3rd His in mut-GVHH-PmIleRS2 in a productive manner without a clash with the adenine […]
(§4) This allows accommodation of the 3 rd His in mut-GVHH-PmIleRS2 without displacement of the adenine moiety. This way, the 3rd His can take over the role of the 1 st His in the canonical reaction mechanism (Fig. 4B). (Page 9, lines 216-218)
(§5) We agree with the reviewer that the active sites of IleRS1 and IleRS2 differ in structural features allowing rearrangement of the α1-helix solely in IleRS2. We were eager t o understand the basis of it and mutated several conserved positions, within and around helix 1, in IleRS1 by introducing the analogous residues found in IleRS2. The same was done for IleRS2. […]
(§6) Table 1. Catalytic activity of the IleRS1 and IleRS2 mutants with exchanged reciprocal residues measured in the activation step […]

[1] = biological target: T2, P53A/G60N/R61K/W130Q/Y126S PmIleRS2 (Priestia megaterium, UniProt A0A0B6AVD3, G60N/P53A/R61K/W130Q/Y126S); test: as above; format: biochemical, Priestia (Bacillus) megaterium; conditions: peer review response Table 1, read-out: Ki (Mup)
T2 sequence (A0A0B6AVD3 1-1032 P53A/G60N/R61K/Y126S/W130Q): T1 sequence (A0A0B6AVD3 1-1032 P53A/G60N/R61K)
Method: as §1, §2, §3, §4, §5, §6

W130Q/Y126S PmIleRS2 = biological target: T3, W130Q/Y126S PmIleRS2 (Priestia megaterium, UniProt A0A0B6AVD3, W130Q/Y126S); test: as above; format: biochemical, Priestia (Bacillus) megaterium; conditions: peer review response Table 1, read-out: Ki (Mup)
T3 sequence (A0A0B6AVD3 1-1032 Y126S/W130Q): T1 sequence (A0A0B6AVD3 1-1032 P53A/G60N/R61K)
Method: as §1, §2, §3, §4, §5, §6

wt-HMGH PmIleRS1 = conditions: amino acid activation step; ATP/PPi exchange assay; Ile varied; slow tight binding inhibitor; read-out: KI (MUP)Ile; cited from earlier work
E. coli IleRS1 [2] = system: E. coli IleRS1; set-up: method as in earlier work; conditions: activation step, absence of tRNA; cited from earlier work
E. coli IleRS1 [3] = system: E. coli IleRS1; set-up: method as in earlier work; conditions: aminoacylation, with tRNA; cited from earlier work

C/C(=C\C(=O)OCCCCCCCCC(=O)O)C[C@@H]1OC[C@H](C[C@@H]2O[C@H]2[C@@H](C)[C@H](C)O)[C@@H](O)[C@H]1O [mupirocin]
Ki (P53A/G60N/R61K PmIleRS2): 3.1 ± 0.2 µM
Ki [1]: 21.1 ± 0.7 µM
Ki (W130Q/Y126S PmIleRS2): 3.2 ± 0.1 µM
Ki (wt-HMGH PmIleRS1): 0.29 ± 0.02 nM
Ki (E. coli IleRS1 [2]): 6 nM
Ki (E. coli IleRS1 [3]): 2.5 nM
